Assay results taken from ChEMBL document CHEMBL4507299, “Data for DCP probe PF-04554878” (2021).

What was measured:
[1] = target: MAP kinase-interacting serine/threonine-protein kinase 2 (Homo sapiens) (UniProt Q9HBH9)
[2] = target: Citron Rho-interacting kinase (Homo sapiens) (UniProt O14578)
[3] = target: Serine/threonine-protein kinase DCLK3 (Homo sapiens) (UniProt Q9C098)
[4] = target: Tyrosine-protein kinase BTK (Homo sapiens) (UniProt Q06187)
[5] = target: Homeodomain-interacting protein kinase 3 (Homo sapiens) (UniProt Q9H422)
[6] = target: Mitogen-activated protein kinase 1 (Homo sapiens) (UniProt P28482)
[7] = target: Interferon-induced, double-stranded RNA-activated protein kinase (Homo sapiens) (UniProt P19525)
[8] = target: Calcium-dependent protein kinase 1 (Plasmodium falciparum) (UniProt P62344)
[9] = target: 5'-AMP-activated protein kinase catalytic subunit alpha-2 (Homo sapiens) (UniProt P54646)
[10] = tested on: Receptor-type tyrosine-protein kinase FLT3 (Homo sapiens), P36888 [D835V]
[11] = target: Cyclin-dependent kinase-like 2 (Homo sapiens) (UniProt Q92772)
[12] = target: Ephrin type-B receptor 2 (Homo sapiens) (UniProt P29323)
[13] = target: cGMP-dependent protein kinase 1 (Homo sapiens) (UniProt Q13976)
cGMP-dependent protein kinase 1 (Homo sapiens), sequence (Q13976 whole entry): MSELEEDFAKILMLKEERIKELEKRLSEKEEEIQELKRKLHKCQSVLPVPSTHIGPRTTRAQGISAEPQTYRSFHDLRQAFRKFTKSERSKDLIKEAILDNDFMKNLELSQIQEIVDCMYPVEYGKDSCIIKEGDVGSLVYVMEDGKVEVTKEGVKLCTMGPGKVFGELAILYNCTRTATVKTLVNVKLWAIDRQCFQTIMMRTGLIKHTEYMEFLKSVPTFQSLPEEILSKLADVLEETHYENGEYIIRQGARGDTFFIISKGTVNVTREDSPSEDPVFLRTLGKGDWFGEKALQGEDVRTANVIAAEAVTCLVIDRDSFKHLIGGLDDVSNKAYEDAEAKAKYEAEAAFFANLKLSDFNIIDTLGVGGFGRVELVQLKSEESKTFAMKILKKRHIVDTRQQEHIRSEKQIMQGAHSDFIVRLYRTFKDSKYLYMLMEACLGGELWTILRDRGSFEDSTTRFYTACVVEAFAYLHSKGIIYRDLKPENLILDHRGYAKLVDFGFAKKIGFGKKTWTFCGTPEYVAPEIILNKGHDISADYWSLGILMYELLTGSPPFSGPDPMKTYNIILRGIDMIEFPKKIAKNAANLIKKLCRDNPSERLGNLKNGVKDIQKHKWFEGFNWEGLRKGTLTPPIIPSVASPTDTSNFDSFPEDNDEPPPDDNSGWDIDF

[14] = target: Serine/threonine-protein kinase Sgk3 (Homo sapiens) (UniProt Q96BR1)
[15] = target: Leucine-rich repeat serine/threonine-protein kinase 2 (Homo sapiens) (UniProt Q5S007)
[16] = target: MAP kinase-activated protein kinase 2 (Homo sapiens) (UniProt P49137)
[17] = target: Serine/threonine-protein kinase MARK1 (Homo sapiens, UniProt Q9P0L2)
[18] = target: Dual specificity tyrosine-phosphorylation-regulated kinase 1B (Homo sapiens) (UniProt Q9Y463)
[19] = tested on: Epidermal growth factor receptor (Homo sapiens), P00533 [UNDEFINED MUTATION]
[20] = target: Macrophage colony-stimulating factor 1 receptor (Homo sapiens) (UniProt P07333)
Macrophage colony-stimulating factor 1 receptor (Homo sapiens), sequence (P07333 whole entry): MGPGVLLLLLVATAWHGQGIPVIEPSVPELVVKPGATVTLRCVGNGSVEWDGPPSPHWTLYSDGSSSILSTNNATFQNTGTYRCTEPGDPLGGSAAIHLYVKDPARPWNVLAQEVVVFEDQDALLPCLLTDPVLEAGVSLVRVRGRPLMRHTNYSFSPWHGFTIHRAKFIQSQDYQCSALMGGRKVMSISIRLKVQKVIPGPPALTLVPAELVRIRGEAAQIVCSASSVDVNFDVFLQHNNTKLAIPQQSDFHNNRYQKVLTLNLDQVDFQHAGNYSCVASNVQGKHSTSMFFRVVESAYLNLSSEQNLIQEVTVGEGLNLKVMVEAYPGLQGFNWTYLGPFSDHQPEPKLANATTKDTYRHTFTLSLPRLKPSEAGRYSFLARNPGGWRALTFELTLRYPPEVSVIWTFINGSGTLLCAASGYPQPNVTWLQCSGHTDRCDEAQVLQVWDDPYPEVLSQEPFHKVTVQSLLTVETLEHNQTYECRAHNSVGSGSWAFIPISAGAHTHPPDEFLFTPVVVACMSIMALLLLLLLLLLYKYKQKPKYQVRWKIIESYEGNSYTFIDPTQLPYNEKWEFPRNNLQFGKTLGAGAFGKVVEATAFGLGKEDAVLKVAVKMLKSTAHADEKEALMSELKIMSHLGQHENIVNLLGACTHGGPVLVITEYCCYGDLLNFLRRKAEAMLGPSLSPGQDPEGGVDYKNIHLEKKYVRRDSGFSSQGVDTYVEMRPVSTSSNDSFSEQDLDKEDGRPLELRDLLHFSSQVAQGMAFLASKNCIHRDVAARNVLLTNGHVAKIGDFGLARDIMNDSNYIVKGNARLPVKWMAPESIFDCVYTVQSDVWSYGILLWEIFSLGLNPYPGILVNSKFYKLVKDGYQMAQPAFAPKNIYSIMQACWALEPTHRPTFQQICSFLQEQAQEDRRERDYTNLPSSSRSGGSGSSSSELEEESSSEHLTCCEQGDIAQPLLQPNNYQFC

[21] = target: Serine/threonine-protein kinase 35 (Homo sapiens) (UniProt Q8TDR2)
[22] = target: Activin receptor type-1 (Homo sapiens) (UniProt Q04771)
[23] = target: Serine/threonine-protein kinase PLK3 (Homo sapiens) (UniProt Q9H4B4)
Serine/threonine-protein kinase PLK3 (Homo sapiens), sequence (Q9H4B4 whole entry, looked up): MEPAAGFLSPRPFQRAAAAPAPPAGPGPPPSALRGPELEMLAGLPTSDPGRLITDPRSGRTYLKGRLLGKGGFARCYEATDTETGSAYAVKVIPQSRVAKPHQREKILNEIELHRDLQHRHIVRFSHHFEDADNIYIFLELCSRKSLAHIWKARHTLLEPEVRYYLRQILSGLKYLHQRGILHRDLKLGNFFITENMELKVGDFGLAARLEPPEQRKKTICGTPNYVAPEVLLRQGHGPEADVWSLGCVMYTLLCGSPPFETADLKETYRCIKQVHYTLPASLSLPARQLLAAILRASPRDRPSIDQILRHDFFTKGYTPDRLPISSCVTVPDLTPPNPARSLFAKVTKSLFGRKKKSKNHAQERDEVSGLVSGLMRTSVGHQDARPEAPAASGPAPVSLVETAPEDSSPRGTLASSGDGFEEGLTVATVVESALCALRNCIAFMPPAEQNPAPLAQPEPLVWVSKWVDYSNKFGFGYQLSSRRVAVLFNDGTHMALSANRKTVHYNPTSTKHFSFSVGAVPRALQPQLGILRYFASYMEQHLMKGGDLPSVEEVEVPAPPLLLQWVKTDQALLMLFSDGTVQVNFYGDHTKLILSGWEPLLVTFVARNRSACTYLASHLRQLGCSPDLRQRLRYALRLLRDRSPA

[24] = target: Mitogen-activated protein kinase kinase kinase 7 (Homo sapiens) (UniProt O43318)
[25] = target: Serine/threonine-protein kinase Nek4 (Homo sapiens) (UniProt P51957)
[26] = target: Tyrosine-protein kinase Fes/Fps (Homo sapiens) (UniProt P07332)
[27] = target: Ribosomal protein S6 kinase alpha-5 (Homo sapiens) (UniProt O75582)
[28] = tested on: Tyrosine-protein kinase ABL1 (Homo sapiens), P00519 [H396P]
[29] = target: Mitogen-activated protein kinase kinase kinase 13 (Homo sapiens) (UniProt O43283)
[30] = target: Protein kinase C eta type (Homo sapiens) (UniProt P24723)
Protein kinase C eta type (Homo sapiens), sequence (P24723 whole entry): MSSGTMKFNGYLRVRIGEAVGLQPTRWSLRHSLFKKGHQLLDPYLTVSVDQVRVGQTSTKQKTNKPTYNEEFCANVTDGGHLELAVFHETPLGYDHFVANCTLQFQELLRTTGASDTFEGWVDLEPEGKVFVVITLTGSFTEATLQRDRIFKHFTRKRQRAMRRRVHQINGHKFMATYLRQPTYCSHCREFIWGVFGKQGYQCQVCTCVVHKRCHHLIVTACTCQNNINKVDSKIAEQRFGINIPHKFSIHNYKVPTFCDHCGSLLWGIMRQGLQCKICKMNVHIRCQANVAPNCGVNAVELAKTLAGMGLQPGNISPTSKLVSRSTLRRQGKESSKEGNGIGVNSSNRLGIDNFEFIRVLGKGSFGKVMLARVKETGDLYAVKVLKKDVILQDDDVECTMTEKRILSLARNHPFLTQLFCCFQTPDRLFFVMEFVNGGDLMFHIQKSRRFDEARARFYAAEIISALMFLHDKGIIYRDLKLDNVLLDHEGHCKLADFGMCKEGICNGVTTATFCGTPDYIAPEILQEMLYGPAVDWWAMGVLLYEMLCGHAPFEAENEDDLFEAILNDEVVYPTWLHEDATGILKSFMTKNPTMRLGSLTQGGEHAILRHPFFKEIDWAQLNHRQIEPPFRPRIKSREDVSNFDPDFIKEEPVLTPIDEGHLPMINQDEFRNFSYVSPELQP

[31] = target: Protein kinase C iota type (Homo sapiens) (UniProt P41743)
[32] = target: 5-hydroxytryptamine receptor 5A (Homo sapiens) (UniProt P47898); settings: Compound concentration 10.0 uM
[33] = target: Muscarinic acetylcholine receptor M1 (Homo sapiens) (UniProt P11229); settings: Compound concentration 10.0 uM
[34] = target: Serine/threonine-protein kinase ULK3 (Homo sapiens) (UniProt Q6PHR2)
[35] = target: Serine/threonine-protein kinase B-raf (Homo sapiens) (UniProt P15056)
[36] = target: Tyrosine-protein kinase ABL1 (Homo sapiens, UniProt P00519)
[37] = target: Dual specificity mitogen-activated protein kinase kinase 4 (Homo sapiens) (UniProt P45985)
[38] = tested on: Tyrosine-protein kinase ABL1 (Homo sapiens), P00519 [Y253F]
[39] = target: Fibroblast growth factor receptor 2 (Homo sapiens) (UniProt P21802)
[40] = target: 5-hydroxytryptamine receptor 2B (Homo sapiens) (UniProt P41595); settings: Compound concentration 10.0 uM
[41] = target: Serine/threonine-protein kinase SIK2 (Homo sapiens) (UniProt Q9H0K1)
[42] = target: MAP/microtubule affinity-regulating kinase 4 (Homo sapiens) (UniProt Q96L34)
MAP/microtubule affinity-regulating kinase 4 (Homo sapiens), sequence (Q96L34 whole entry): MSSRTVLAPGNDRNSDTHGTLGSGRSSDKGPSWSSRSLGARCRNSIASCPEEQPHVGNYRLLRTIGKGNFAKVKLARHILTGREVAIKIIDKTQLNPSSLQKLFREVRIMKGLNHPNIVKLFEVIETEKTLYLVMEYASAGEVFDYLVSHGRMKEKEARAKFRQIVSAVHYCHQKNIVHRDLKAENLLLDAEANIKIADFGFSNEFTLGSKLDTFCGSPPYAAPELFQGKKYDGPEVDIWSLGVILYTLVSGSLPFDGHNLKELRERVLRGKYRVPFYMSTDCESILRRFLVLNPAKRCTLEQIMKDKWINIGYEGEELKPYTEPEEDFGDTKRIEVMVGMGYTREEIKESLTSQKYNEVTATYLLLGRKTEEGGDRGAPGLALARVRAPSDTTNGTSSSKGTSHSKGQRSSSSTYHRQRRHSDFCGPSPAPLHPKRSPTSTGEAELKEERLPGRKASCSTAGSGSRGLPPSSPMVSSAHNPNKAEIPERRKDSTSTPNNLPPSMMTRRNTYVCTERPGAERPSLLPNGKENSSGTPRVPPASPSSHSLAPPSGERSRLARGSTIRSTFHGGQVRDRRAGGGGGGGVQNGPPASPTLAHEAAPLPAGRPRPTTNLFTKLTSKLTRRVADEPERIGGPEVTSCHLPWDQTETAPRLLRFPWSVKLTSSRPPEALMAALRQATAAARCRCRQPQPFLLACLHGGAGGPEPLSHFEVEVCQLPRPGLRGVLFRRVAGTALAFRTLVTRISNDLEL

[43] = target: Macrophage-stimulating protein receptor (Homo sapiens) (UniProt Q04912)
[44] = target: 5-hydroxytryptamine receptor 7 (Homo sapiens) (UniProt P34969); settings: Compound concentration 10.0 uM
[45] = target: Mitogen-activated protein kinase kinase kinase kinase 4 (Homo sapiens) (UniProt O95819)
[46] = Compound concentration 100.0 nM
[47] = Compound concentration 1000.0 nM

Tyrosine-protein kinase BTK (Homo sapiens), sequence (Q06187 whole entry): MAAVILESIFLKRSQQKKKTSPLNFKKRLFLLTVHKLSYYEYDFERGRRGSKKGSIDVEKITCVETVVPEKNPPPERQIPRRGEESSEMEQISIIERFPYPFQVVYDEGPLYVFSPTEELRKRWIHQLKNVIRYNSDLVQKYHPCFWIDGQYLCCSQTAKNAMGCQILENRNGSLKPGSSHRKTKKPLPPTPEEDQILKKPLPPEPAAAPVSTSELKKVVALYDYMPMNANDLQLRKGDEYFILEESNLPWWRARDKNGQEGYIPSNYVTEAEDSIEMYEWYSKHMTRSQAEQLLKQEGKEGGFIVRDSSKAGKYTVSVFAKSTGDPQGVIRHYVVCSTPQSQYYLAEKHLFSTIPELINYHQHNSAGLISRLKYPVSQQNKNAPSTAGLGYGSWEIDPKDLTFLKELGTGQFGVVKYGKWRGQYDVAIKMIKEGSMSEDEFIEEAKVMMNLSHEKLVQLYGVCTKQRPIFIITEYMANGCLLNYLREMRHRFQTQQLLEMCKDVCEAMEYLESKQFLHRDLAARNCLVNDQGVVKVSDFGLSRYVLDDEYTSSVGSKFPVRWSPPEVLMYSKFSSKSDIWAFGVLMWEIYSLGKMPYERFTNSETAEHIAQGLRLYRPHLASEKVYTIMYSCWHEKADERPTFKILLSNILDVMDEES
Serine/threonine-protein kinase DCLK3 (Homo sapiens), sequence (Q9C098 whole entry): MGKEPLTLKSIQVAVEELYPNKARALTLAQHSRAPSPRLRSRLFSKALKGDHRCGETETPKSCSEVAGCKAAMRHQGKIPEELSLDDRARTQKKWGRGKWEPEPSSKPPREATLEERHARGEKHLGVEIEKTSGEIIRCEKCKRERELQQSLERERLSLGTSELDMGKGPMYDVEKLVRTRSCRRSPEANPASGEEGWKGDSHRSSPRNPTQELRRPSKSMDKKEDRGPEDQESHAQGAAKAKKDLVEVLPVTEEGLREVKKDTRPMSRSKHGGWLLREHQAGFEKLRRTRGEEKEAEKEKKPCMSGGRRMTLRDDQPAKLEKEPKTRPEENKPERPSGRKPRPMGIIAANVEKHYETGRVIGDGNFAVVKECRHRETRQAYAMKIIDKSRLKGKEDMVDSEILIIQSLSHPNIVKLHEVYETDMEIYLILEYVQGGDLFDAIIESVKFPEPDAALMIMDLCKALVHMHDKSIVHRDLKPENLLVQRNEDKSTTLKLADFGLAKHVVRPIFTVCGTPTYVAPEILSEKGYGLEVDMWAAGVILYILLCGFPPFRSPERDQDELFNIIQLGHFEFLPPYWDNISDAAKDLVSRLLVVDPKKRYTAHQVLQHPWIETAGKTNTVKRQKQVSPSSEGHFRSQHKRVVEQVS

In the case of `CNC(=O)c1ccc(Nc2ncc(C(F)(F)F)c(NCc3nccnc3N(C)S(C)(=O)=O)n2)cc1` [DEFACTINIB], the residual activity [1, 46] is reported as 100%, the residual activity [2, 46] is reported as 68% and the residual activity [3, 46] is reported as 67%. For the same compound, the residual activity [4, 46] was 83%, the residual activity [5, 46] was 47% and the residual activity [6, 46] was 76%. For the same compound, the residual activity [7, 46] was 100%, the residual activity [8, 46] was 85% and the residual activity [9, 46] was 100%. It also gave a residual activity [10, 46] of 0.2%, a residual activity [11, 46] of 79% and a residual activity [12, 46] of 76%. The residual activity [13, 46] was 100%, the residual activity [14, 46] was 85% and the residual activity [15, 46] was 60%. It also gave a residual activity [16, 46] of 100%, a residual activity [17, 46] of 100% and a residual activity [18, 46] of 79%. It also gave a residual activity [19, 46] of 91%, a residual activity [20, 46] of 100% and a residual activity [21, 46] of 100%. For the same compound, the residual activity [22, 46] was 100%, the residual activity [23, 46] was 91% and the residual activity [24, 46] was 57%. For the same compound, the residual activity [25, 46] was 76%, the residual activity [26, 46] was 82% and the residual activity [27, 46] was 80%. The residual activity [28, 46] was 68%, the residual activity [29, 46] was 98% and the residual activity [30, 46] was 86%. The residual activity [31, 46] was 84%, the inhibition [32] was -1.91% and the inhibition [33] was 19.3%. For the same compound, the residual activity [34, 46] was 75%, the residual activity [35, 46] was 100% and the residual activity [36, 46] was 88%. For the same compound, the residual activity [37, 46] was 71%, the residual activity [38, 46] was 100% and the residual activity [39, 46] was 100%. For the same compound, the inhibition [40] was 5.73%, the residual activity [41, 46] was 100% and the residual activity [42, 46] was 83%. It also gave a residual activity [43, 46] of 100%, an inhibition [44] of 5.31% and a residual activity [45, 46] of 98%.

`CN(c1ccnc(CNc2nc(Nc3ccc4c(c3)CC(=O)N4)ncc2C(F)(F)F)n1)S(C)(=O)=O` [PF-00911705] gave a residual activity [1, 47] of 91%, a residual activity [2, 47] of 99% and a residual activity [3, 47] of 43%. For the same compound, the residual activity [4, 47] was 63%, the residual activity [5, 47] was 48% and the residual activity [6, 47] was 70%. It also gave a residual activity [7, 47] of 82%, a residual activity [8, 47] of 84% and a residual activity [9, 47] of 87%. The residual activity [10, 47] was 1.5%, the residual activity [11, 47] was 84% and the residual activity [12, 47] was 81%. For the same compound, the residual activity [13, 47] was 100%, the residual activity [14, 47] was 87% and the residual activity [15, 47] was 15%. It also gave a residual activity [16, 47] of 100%, a residual activity [17, 47] of 77% and a residual activity [18, 47] of 31%. It also gave a residual activity [19, 47] of 44%, a residual activity [20, 47] of 100% and a residual activity [21, 47] of 86%. For the same compound, the residual activity [22, 47] was 91%, the residual activity [23, 47] was 1.7% and the residual activity [24, 47] was 48%. The residual activity [25, 47] was 84%, the residual activity [26, 47] was 74% and the residual activity [27, 47] was 78%. It also gave a residual activity [28, 47] of 26%, a residual activity [29, 47] of 0% and a residual activity [30, 47] of 100%. For the same compound, the residual activity [31, 47] was 55%, the inhibition [32] was 1.82% and the inhibition [33] was -6.58%. For the same compound, the residual activity [34, 47] was 25%, the residual activity [35, 47] was 82% and the residual activity [36, 47] was 77%. It also gave a residual activity [37, 47] of 23%, a residual activity [38, 47] of 45% and a residual activity [39, 47] of 59%. For the same compound, the inhibition [40] was 13.5%, the residual activity [41, 47] was 41% and the residual activity [42, 47] was 63%. It also gave a residual activity [43, 47] of 72%, an inhibition [44] of -4.55% and a residual activity [45, 47] of 82%.
